Where two headings read alike, the source gives them in different places.

For experiment [1], the target named is T1, glutathione-S-transferase (GST) tagged LXRbeta LBD (ligand binding domain) (Homo sapiens, UniProt P55055).
T1 construct: purchased Invitrogen pv4658.pps
T1 sequence (P55055 222-460 limits assumed): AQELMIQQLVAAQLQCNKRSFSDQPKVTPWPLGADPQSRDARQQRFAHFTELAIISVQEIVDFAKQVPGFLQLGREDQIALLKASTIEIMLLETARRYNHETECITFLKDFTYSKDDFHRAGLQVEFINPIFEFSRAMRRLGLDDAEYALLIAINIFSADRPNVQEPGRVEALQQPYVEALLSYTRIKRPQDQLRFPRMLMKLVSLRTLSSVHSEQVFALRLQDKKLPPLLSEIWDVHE
The experiment is described as follows: LanthaScreen TR-FRET Liver X Receptor Coactivator Assay, LXR beta. Type of experiment: biochemical. The settings on record: for EC50: potency (Inflection Point) of compound-induced co-activator recruitment, TR-FRET; for Emax: read-out: LXR beta actiivty at max dose (%). In outline:
(§1)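 LXR alpha- or beta-LBD added to test compounds, then fluorescein-labelled coactivator peptide plus terbium anti-GST antibody. After incubation at room temperature, TR-FRET read on a filter-based plate reader.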
On the technique in general: TR-FRET usually uses a lanthanide donor and a delayed reading to cut background.

Experiment [2] concerns the target T2, glutathione-S-transferase (GST) tagged LXRalpha LBD (ligand binding domain) (Homo sapiens, UniProt Q13133).
T2 construct: purchased Invitrogen pv4655
T2 sequence (Q13133 209-447 limits assumed): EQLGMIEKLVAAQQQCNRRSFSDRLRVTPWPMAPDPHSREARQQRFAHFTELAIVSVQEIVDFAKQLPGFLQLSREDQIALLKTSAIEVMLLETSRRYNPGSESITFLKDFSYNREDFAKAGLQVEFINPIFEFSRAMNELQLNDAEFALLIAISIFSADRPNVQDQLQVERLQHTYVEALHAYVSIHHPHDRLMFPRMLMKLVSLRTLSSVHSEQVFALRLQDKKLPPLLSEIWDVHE
The experiment is described as follows: LanthaScreen TR-FRET Liver X Receptor Coactivator Assay, LXR alpha. Type of experiment: biochemical. The settings on record: for LXR alpha IP (nM) / EC50: potency (Inflection Point) of compound-induced co-activator recruitment, TR-FRET; for Emax: read-out: LXR alpha actiivty at max dose (%); for EC50: read-out: LXR alpha IP. In a few lines: as §1

Where [3] appears, read: efficacy (Emax) in relation to reference dual agonist T0901317.

With `CN(C)C(=O)c1ccc(S(=O)(=O)C2CCC3(CC2)CCN(C(=O)C(O)(c2cc(Cl)cc(Cl)c2)C(F)(F)F)CC3)cc1Cl` (single isomer, unassigned) [Example 21-1, 2-chloro-4-(3-((R or S)-2-(3,5-dichlorophenyl)-3,3,3-trifluoro-2-hydroxypropanoyl)-3-azaspiro[5.5]undecan-9-ylsulfonyl)-N,N-dimethylbenzamide], the EC50 in experiment [1] (LXR beta IP (nM)) was 1460 nM. In experiment [1], the Emax worked out at 50%. In addition, in experiment [2], the “LXR alpha IP (nM)” value is “No IP” and the Emax worked out at 0%.
For `CN(C)C(=O)c1ccc(CCCCC2CCN(C(=O)C(O)(c3ccccc3)C(F)(F)F)CC2)cc1Cl` (single isomer, unassigned) [Example 15-2, (R or S)-2-chloro-N,N-dimethyl-4-(4-(1-(3,3,3-trifluoro-2-hydroxy-2-phenylpropanoyl)piperidin-4-yl)butyl)benzamide], in experiment [1] (setting [3]), the “LXR beta actiivty at max dose (%)” value turned out to be 95%. The EC50 in experiment [1] (read-out: LXR beta IP) is 28 nM; in experiment [2] it was 623 nM. The Emax in experiment [2] (setting [3]) amounted to 20%.
Regarding `CN(C)C(=O)c1ccc(NCCC2CC23CCN(C(=O)C2(c4ccccc4)CCCC2)CC3)cc1Cl` (single isomer, unassigned) [Example 8-1, (S or R)-2-chloro-N,N-dimethyl-4-(2-(6-(1-phenylcyclopentanecarbonyl)-6-azaspiro[2.5]octan-1-yl)ethylamino)benzamide], the EC50 in experiment [1] (LXR beta IP (nM)) is 7 nM. The Emax in experiment [1] was 21%; in experiment [2] (setting [3]) it was 0%. Besides, in experiment [2], the “LXR alpha IP (nM)” value is on record as “No IP”.
Consider `NC(=O)c1ccc(NCCCCC2CCN(C(=O)C(O)(c3ccccc3)C(F)(F)F)CC2)cc1Cl` (single isomer, unassigned) [Example 1-2, (R or S)-2-chloro-4-(4-(1-(3,3,3-trifluoro-2-hydroxy-2-phenylpropanoyl)piperidin-4-yl)butylamino)benzamide], for which the values for the Emax in experiment [1] (setting [3]) and in experiment [2] (setting [3]) were 59% and 43%, respectively. For the same compound, the EC50 in experiment [1] (read-out: LXR beta IP) stood at 15 nM; in experiment [2], 266 nM.
As for `CN(C(=O)c1ccc(NCCC[C@@H]2CC23CCN(C(=O)[C@](O)(c2ccccc2)C(F)(F)F)CC3)cc1Cl)C1CC1` (single isomer, unassigned) [Example 6-6, 2-chloro-N-cyclopropyl-N-methyl-4-(3-((R or S)-6-((R or S)-3,3,3-trifluoro-2-hydroxy-2-phenylpropanoyl)-6-azaspiro[2.5]octan-1-yl)propylamino)benzamide], the Emax is 43% in experiment [1] (setting [3]) and 0% in experiment [2] (setting [3]). The EC50 in experiment [1] (read-out: LXR beta IP) was 49 nM. Besides, the “LXR alpha IP (nM)” value in experiment [2] is recorded as “No IP”.
The matching figures for `CN(C)C(=O)c1ccc(CCCC2CC3(CCN(C(=O)C(O)(c4cccc(OC(F)(F)F)c4)C(F)(F)F)CC3)C2)cc1Cl` (single isomer, unassigned) [Example 16-4, 2-chloro-N,N-dimethyl-4-(3-(7-((S or R)-3,3,3-trifluoro-2-hydroxy-2-(3-(trifluoromethoxy)phenyl)propanoyl)-7-azaspiro[3.5]nonan-2-yl)propyl)benzamide]: 96%, 8%, 58 nM and “No IP”.
`CN(C)C(=O)c1ccc(N(C)CCC2CC3(CCN(C(=O)C(C)(C)c4ccccc4)CC3)C2)nc1Cl` [Example 12-1, 2-chloro-N,N-dimethyl-6-(methyl(2-(7-(2-methyl-2-phenylpropanoyl)-7-azaspiro[3.5]nonan-2-yl)ethyl)amino)nicotinamide]: the EC50 in experiment [1] (read-out: LXR beta IP) came out at 430 nM. In addition, in experiment [1], the Emax was 34%. Moreover, in experiment [2], the “LXR alpha IP (nM)” value is recorded as “No IP” and the Emax came out at 5%.
As to `CCOc1cccc(C(O)(C(=O)N2CCC3(CCC(Sc4ccc(C(=O)N(C)C)c(Cl)c4)CC3)CC2)C(F)(F)F)c1` (single isomer, unassigned) [Example 19-3, 2-chloro-4-(3-((S or R)-2-(3-ethoxyphenyl)-3,3,3-trifluoro-2-hydroxypropanoyl)-3-azaspiro[5.5]undecan-9-ylthio)-N,N-dimethylbenzamide], the Emax in experiment [1] (setting [3]) was found to be 95%; in experiment [2] (setting [3]), 0%. Besides, the EC50 in experiment [1] (read-out: LXR beta IP) came to 136 nM. Moreover, in experiment [2], the “LXR alpha IP (nM)” value is given as “No IP”.
For the compound `COc1cccc([C@@](O)(C(=O)N2CCC(CCC[C@H](C)Nc3ccc(C(=O)N(C)C)c(Cl)c3)CC2)C(F)(F)F)c1` (single isomer, unassigned) [Example 4-1, 2-chloro-N,N-dimethyl-4-((S or R)-5-(1-((R or S)-3,3,3-trifluoro-2-hydroxy-2-(3-methoxyphenyl)propanoyl)piperidin-4-yl)pentan-2-ylamino)benzamide], the Emax was determined as 71% in experiment [1] (setting [3]) and 22% in experiment [2] (setting [3]). Moreover, the EC50 is 13 nM in experiment [1] (read-out: LXR beta IP) and 734 nM in experiment [2].
In the case of `COc1cccc([C@@](O)(C(=O)N2CCC3(CC2)C[C@H]3CCCc2ccc(C(=O)NC3CC3)c(Cl)c2)C(F)(F)F)c1` (single isomer, unassigned) [Example 17-3, 2-chloro-N-cyclopropyl-4-(3-((R or S)-6-((R or S)-3,3,3-trifluoro-2-hydroxy-2-(3-methoxyphenyl)propanoyl)-6-azaspiro[2.5]octan-1-yl)propyl)benzamide], the results for the Emax in experiment [1] (setting [3]) and in experiment [2] (setting [3]) were 43% and 8%, respectively. Further, the EC50 in experiment [1] (read-out: LXR beta IP) is 19 nM. Besides, the “LXR alpha IP (nM)” value in experiment [2] is “No IP”.
Regarding `CN(C)C(=O)c1ccc(CCCCC2CCN(C(=O)C(C)(C)c3ccccc3)CC2)cc1Cl` [Example 15-4, 2-chloro-N,N-dimethyl-4-(4-(1-(2-methyl-2-phenylpropanoyl)piperidin-4-yl)butyl)benzamide], the Emax in experiment [1] (setting [3]) stood at 103%; in experiment [2] (setting [3]), 39%. Also, the EC50 is 32 nM in experiment [1] (read-out: LXR beta IP) and 463 nM in experiment [2].
On to `CNC(=O)c1ccc(NCCCCC2CCN(C(=O)C3(c4ccccc4)CCCC3)CC2)cc1Cl` [Example 1-4, 2-chloro-N-methyl-4-(4-(1-(1-phenylcyclopentanecarbonyl)piperidin-4-yl)butylamino)benzamide], for which the Emax in experiment [1] (setting [3]) stood at 42%; in experiment [2] (setting [3]) it was 2%. The EC50 in experiment [1] (read-out: LXR beta IP) was 183 nM. The “LXR alpha IP (nM)” value in experiment [2] is “No IP”.
Taken in the same sequence, the figures for `CN(C)C(=O)c1ccc(S(=O)(=O)CCCCC2CCN(C(=O)C(C)(C)c3ccccc3)CC2)cc1Cl` [Example 22-1, 2-chloro-N,N-dimethyl-4-(4-(1-(2-methyl-2-phenylpropanoyl)piperidin-4-yl)butylsulfonyl)benzamide] were 57%, 2%, 1990 nM and “No IP”.
On to `CN(C)C(=O)c1ccc(NCCC[C@H]2CC23CCN(C(=O)[C@](O)(c2ccccc2)C(F)(F)F)CC3)nc1Cl` (single isomer, unassigned) [Example 6-3, 2-chloro-N,N-dimethyl-6-(3-((S or R)-6-((R or S)-3,3,3-trifluoro-2-hydroxy-2-phenylpropanoyl)-6-azaspiro[2.5]octan-1-yl)propylamino)nicotin-amide], for which the results for the Emax in experiment [1] (setting [3]) and in experiment [2] (setting [3]) were 49% and 24%, respectively. Besides, the EC50 was determined as 14 nM in experiment [1] (read-out: LXR beta IP) and 1400 nM in experiment [2].

Source of the values: patent US10894775B2, “Piperidine derivatives as liver X receptor beta agonists, compositions, and their use” (Merck Sharp & Dohme Corp., priority 2016, dated 2021).
